Tests used:
[1] = test system: Staphylococcus aureus Newman; experiment: Staphylococcus infection in mice (body weight, CFU recovered from kidney); assay type: in vivo; settings: for Ability of mice to clear an infection by Staphylococcus aureus Newman; bacteria quantified as CFU recovered from a standard sample of kidney: FIG. 6
Staphylococcus carnosus = experiment: Inhibition of growth of Staphylococcus carnosus (optical density of culture); settings: after 9-20 h, No compound 0.887
Procedure: (§1) Activity of substances in the inhibition of growth of bacteria. Bacteria including the species Escherichia coli, Bacillus pumilus, Salmonella sp., Micrococcus luteus and Staphylococcus carnosus are cultured in appropriate media (Luria broth for all except S. canosus). Overnight cultures are mixed with fresh medium to reach an optical density at 600 nM of ca. 0.1 AU. These cultures are mixed with solutions of substances to be tested at concentrations ranging from 100 μM to 0.05 μM in a microtitre plate. The growth of the culture is monitored by measuring the optical density at various times after the addition of the inhibitor. Reduction in the rate of increase in optical density corresponds to an inhibition of bacterial growth.

Salmonella typhimurium = experiment: Inhibition of growth of Salmonella typhimurium (optical density of culture); settings: after 9-20 h, No compound 0.943
Procedure: as §1

[2] = test system: Salmonella typhimurium phagocytosed by J774 murine cells; experiment: Intracellular killing of S. Typhimurium by mouse macrophage cellline J 774 A.1 (surviving CFU); assay type: cell-based; settings: FIG. 4; compared with azithromycin
Procedure: Substances may act directly on bacteria, or they may act to promote the killing of the bacteria by phagocytes. To measure this effect, cultures murine macrophages are incubated with a test bacteria and the number of bacteria surviving are counted in terms of the viable colony forming units (CFU). The method for determining the rate of phagocytosis is as follows:
Intracellular killing of S. Typhimurium by mouse macrophage cellline J 774 A.1 • seed a monolayer of cells in 200 μl Media into the wells of a 96 well plates • incubate O/N 37° C. • remove medium and add fresh medium • add Bacteria (Salmonella typhimurium) e.g. 5 μl of 1:100 diluted O/N culture (MOI=10) (=10^8 cfu/ml) • centrifuge 10 min 800 g (2000 rpm) • incubate 20-30 minutes at 37° C. (phagocytosis) • remove media • wash 1-2× with PBS • add medium with 100 μg/ml Gentamicin, stock: 10 mg/ml (=1:100) • incubate 45′ at 37° C. • wash 2× with PBS • add fresh medium (200 μl/well) • add compounds to test • incubate 2-3 hours at 37° C. • remove medium • lyse cells with water: add 200 μl H2O incubate 10′, push a few times through 27 gauge needle using a 1 ml syringe • plate […] 1:10 dilution onto LB-agar plates (=1:100 dil)
Overnight culture of Salmonella thyphimurium=˜[…]
Overnight culture of Staphylococcus carnosus=˜5×10^9 cfu/ml MOI=50 (=5 μl of 1:10 dil. O/N culture)
MOI=Multiplicity of Infection […]

[3] = test system: mice treated with dextran sulfate (colitis); experiment: Dextran sulfate colitis in mice (inflammatory bowel disease model); assay type: in vivo, mouse (C57 BLK6 or BALBc); settings: N=8; for Body weight and clinical score of BALBc mice at day 9 after commencing 2.5% DSS in water: FIG. 18
Excerpt: The potential efficacy of a Compound for Inflammatory bowel disease may be modeled as follows. C57 BLK6 or BALBc mice are provided with drinking water containing 2.5% or 2.8% dextran sulfate. Animals are weighed and observed for signs of intestinal disturbance daily. Signs include diarrhea or occult blood. Compound is formulated by mixing with a solution of 0.1 up to 1% citric acid depending on concentration. Compound is provided by oral gavage daily.

SMILES | Ability of mice to clear an infection by Staphylococcus aureus Newman; bacteria quantified as CFU recovered from a standard sample of kidney [1] | Absorbance of culture medium at 600 nm (Staphylococcus carnosus; Conc. 0.8 μM) | Absorbance of culture medium at 600 nm (Staphylococcus carnosus; Conc. 2 μM) | Absorbance of culture medium at 600 nm (Staphylococcus carnosus; Conc. 3 μM) | Absorbance of culture medium at 600 nm (Staphylococcus carnosus; Conc. 6 μM) | Absorbance of culture medium at 600 nm (Staphylococcus carnosus; Conc. 13 μM) | Absorbance of culture medium at 600 nm (Staphylococcus carnosus; Conc. 25 μM) | Absorbance of culture medium at 600 nm (Staphylococcus carnosus; Conc. 50 μM) | Absorbance of culture medium at 600 nm (Staphylococcus carnosus; Conc. 100 μM) | Absorbance of culture medium at 600 nm (Salmonella typhimurium; Conc. 0.8 μM) | Absorbance of culture medium at 600 nm (Salmonella typhimurium; Conc. 2 μM) | Absorbance of culture medium at 600 nm (Salmonella typhimurium; Conc. 3 μM) | Absorbance of culture medium at 600 nm (Salmonella typhimurium; Conc. 6 μM) | Absorbance of culture medium at 600 nm (Salmonella typhimurium; Conc. 13 μM) | Absorbance of culture medium at 600 nm (Salmonella typhimurium; Conc. 25 μM) | Absorbance of culture medium at 600 nm (Salmonella typhimurium; Conc. 50 μM) | Absorbance of culture medium at 600 nm (Salmonella typhimurium; Conc. 100 μM) | Body weight and clinical score of BALBc mice at day 9 after commencing 2.5% DSS in water [3] | also measured
CCC(=O)O[C@@H]1[C@@H](C)N(C)C[C@H](C)C[C@@](C)(O)[C@H](O[C@@H]2O[C@H](C)C[C@H](N(C)C)[C@H]2O[N+](=O)[O-])[C@@H](C)[C@H](O[C@H]2C[C@@](C)(OC)[C@@H](O)[C@H](C)O2)[C@@H](C)C(=O)O[C@H](CC)[C@@]1(C)O [Compound E-5] | decreases recovered bacteria in a dose responsive manner | 0.819 | 0.726 | 0.805 | 0.525 | 0.452 | 0.403 | 0.347 | 0.302 | 0.574 | 0.568 | 0.511 | 0.478 | 0.437 | 0.396 | 0.395 | 0.390 |  | Response of mice to an infection by Staphylococcus (recovery of weight) ([1]; FIG. 5): faster recovery of weight due to faster clearance of bacteria
CC[C@H]1OC(=O)[C@H](C)[C@@H](O[C@H]2C[C@@](C)(OC)[C@@H](O)[C@H](C)O2)[C@H](C)[C@@H](O[C@@H]2O[C@H](C)CC(N(C)C)[C@H]2OC(C)=O)[C@](C)(O)C[C@@H](C)CN(C)[C@H](C)[C@@H](O[N+](=O)[O-])[C@]1(C)O (stereo partly shown) [Compound E-9] |  | 0.765 | 0.737 | 0.830 | 0.752 | 0.677 | 0.426 | 0.522 | 0.545 | 0.300 | 0.272 | 0.327 | 0.348 | 0.382 | 0.395 | 0.319 | 0.221 |  | 
CC[C@H]1OC(=O)[C@H](C)[C@@H](O[C@H]2C[C@@](C)(OC)[C@@H](O)[C@H](C)O2)[C@H](C)[C@@H](O[C@@H]2O[C@H](C)CC(N(C)C)[C@H]2O[N+](=O)[O-])[C@](C)(O)C[C@@H](C)CN(C)[C@H](C)[C@@H](OC(C)=O)[C@]1(C)O (stereo partly shown) [Compound E-2] | decreases recovered bacteria in a dose responsive manner | 0.760 | 0.766 | 0815 | 0.626 | 0.542 | 0.456 | 0.425 | 0.395 | 0.452 | 0.441 | 0.410 | 0.382 | 0.621 | 0.314 | 0.168 | 0.251 |  | Killing of phagocytosed Salmonella typhimurium by murine macrophages [2]: stimulates the killing of bacterial cells by macrophages; Body weight of BALBc mice at day 7 after commencing 2.5% DSS in water ([3]; FIG. 17): protects against weight loss
CCCCCCCCCCN(C)C1C[C@@H](C)O[C@@H](O[C@@H]2[C@@H](C)[C@H](O[C@H]3C[C@@](C)(OC)[C@@H](O)[C@H](C)O3)[C@@H](C)C(=O)O[C@H](CC)[C@@](C)(O)[C@H](O)[C@@H](C)N(C)C[C@H](C)C[C@@]2(C)O)[C@@H]1O (stereo partly shown) [Compound E-3] |  |  |  |  |  |  |  |  |  |  |  |  |  |  |  |  |  | stimulate inflammation | 
CC[C@H]1OC(=O)[C@H](C)[C@@H](O[C@H]2C[C@@](C)(OC)[C@@H](O)[C@H](C)O2)[C@H](C)[C@@H](O[C@@H]2O[C@H](C)C[C@H](N(C)C)[C@H]2O)[C@](C)(O)C[C@@H](C)CN(C)[C@H](C)[C@@H](O)[C@]1(C)O [Azithromycin, reference compound] | decreases recovered bacteria in a dose responsive manner |  |  |  |  |  |  |  |  |  |  |  |  |  |  |  |  |  | 
CCC(=O)O[C@@H]1C(N(C)C)C[C@@H](C)O[C@H]1O[C@@H]1[C@@H](C)[C@H](O[C@H]2C[C@@](C)(OC)[C@@H](OC(=O)CC)[C@H](C)O2)[C@@H](C)C(=O)O[C@H](CC)[C@@](C)(O)[C@H](OC(=O)CC)[C@@H](C)N(C)C[C@H](C)C[C@@]1(C)OC(=O)CC (stereo partly shown) [Compound E-51] |  |  |  |  |  |  |  |  |  |  |  |  |  |  |  |  |  |  | Body weight and clinical score of BALBc mice at day 7 after commencing 2.5% DSS in water ([3]; FIG. 19, weight greater than Vehicle): protect against inflammation
CCCC(=O)O[C@@H]1C(N(C)C)C[C@@H](C)O[C@H]1O[C@@H]1[C@@H](C)[C@]2(O)O[C@@]1(C)C[C@@H](C)CN(C)[C@H](C)[C@@H](O)[C@](C)(O)[C@@H](CC)OC(=O)[C@@H]2C (stereo partly shown) [Compound E-238] |  |  |  |  |  |  |  |  |  |  |  |  |  |  |  |  |  | stimulate inflammation | 
CCCC(=O)O[C@@H]1[C@@H](C)N(C)C[C@H](C)C[C@@](C)(O)[C@H](O[C@@H]2O[C@H](C)CC(N(C)C)[C@H]2O)[C@@H](C)[C@H](O[C@H]2C[C@@](C)(OC)[C@@H](OC(=O)CCC)[C@H](C)O2)[C@@H](C)C(=O)O[C@H](CC)[C@@]1(C)O (stereo partly shown) [Compound E-553] |  |  |  |  |  |  |  |  |  |  |  |  |  |  |  |  |  | stimulate inflammation | 
